Calls of active or inactive are those of the source. The calls are words filed in the database; no cut-off is given here.
What was measured:
Estrogen receptor = target: T1, Estrogen receptor (Homo sapiens, UniProt P03372); experiment: biochemical
T1 sequence (P03372 whole entry): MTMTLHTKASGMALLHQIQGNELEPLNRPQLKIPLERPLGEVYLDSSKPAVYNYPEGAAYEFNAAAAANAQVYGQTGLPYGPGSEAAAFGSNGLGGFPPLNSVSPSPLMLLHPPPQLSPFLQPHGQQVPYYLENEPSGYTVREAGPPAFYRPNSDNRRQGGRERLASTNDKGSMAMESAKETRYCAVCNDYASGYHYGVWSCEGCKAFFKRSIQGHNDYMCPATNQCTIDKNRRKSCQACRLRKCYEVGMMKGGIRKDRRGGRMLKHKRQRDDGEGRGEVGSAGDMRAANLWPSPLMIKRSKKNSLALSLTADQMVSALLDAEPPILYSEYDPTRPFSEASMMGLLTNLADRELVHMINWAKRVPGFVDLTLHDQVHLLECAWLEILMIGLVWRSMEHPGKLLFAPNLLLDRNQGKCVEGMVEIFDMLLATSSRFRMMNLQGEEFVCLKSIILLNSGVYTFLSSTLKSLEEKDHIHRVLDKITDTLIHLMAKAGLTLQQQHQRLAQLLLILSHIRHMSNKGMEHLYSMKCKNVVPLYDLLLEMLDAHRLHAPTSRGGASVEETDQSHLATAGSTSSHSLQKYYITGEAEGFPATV
Description: Displacement of [2,4,6,7-3H]estradiol from human ERalpha expressed in HeLa cells after 18 hrs by liquid scintillation counting

Cancer cell lines [1] = experiment: Cytotoxicity against human cervical cancer cells assessed as reduction of [3H]thymidine incorporation at 2 uM after 24 to 48 hrs by scintillation counting; format: functional, cell-based
Cancer cell lines [2] = experiment: Cytotoxicity against human cervical cancer cells assessed as reduction of [3H]thymidine incorporation at 5 nM after 24 to 48 hrs by scintillation counting; format: functional, cell-based
HeLa = experiment: Cellular uptake in human HeLa cells assessed as retention time at 2 uM after 48 hrs by HPLC-MS analysis; format: ADME, cell-based
MCF7 [3] = experiment: Cytotoxicity against human MCF7 cells assessed as reduction of cell proliferation at 1 nM to 1 uM after 96 hrs by MTT assay; format: functional, cell-based
MCF7 [4] = experiment: Cytotoxicity against human MCF7 cells assessed as reduction of cell proliferation at 6 uM after 96 hrs by MTT assay; format: functional, cell-based
[5] = target: T2, Estrogen receptor (Homo sapiens) (UniProt P03372); experiment: Agonist activity at human ERalpha expressed in human HeLa cells coexpressing ERE-E1b-Luc assessed as transcriptional activation after 48 hrs by luciferase reporter gene assay relative to estradiol; format: functional, cell-based
T2 sequence (whole entry): T1 sequence (P03372 whole entry)

| Structure (SMILES) | Ki (Estrogen receptor) [nM] | Activity (Cancer cell lines [1]) | Activity (Cancer cell lines [2]) | Time (HeLa) [min] | Activity (MCF7 [3]) | Activity (MCF7 [4]) | Activity [5] [%] |
| --- | --- | --- | --- | --- | --- | --- | --- |
| CCCC[N+](C)(C)CCOc1ccc(/C(=C(/CC)c2ccccc2)c2ccccc2)cc1.[Br-] [TAMOXIFEN BUTYL BROMIDE] | 13 | inactive | Active | 10 | inactive | Active |  |
| CC/C(=C(\c1ccccc1)c1ccc(OCC[N+](C)(C)CC)cc1)c1ccccc1.[Br-] [TAMOXIFEN ETHYL BROMIDE] | 13.7 |  |  | 8 | inactive | Active |  |
| CC/C(=C(\c1ccccc1)c1ccc(OCC[N+](C)(C)C(C)C)cc1)c1ccccc1.[Br-] [TAMOXIFEN ISOPROPYL BROMIDE] | 25.4 | inactive | Active | 10 | inactive | Active | 50 |
| CC/C(=C(\c1ccccc1)c1ccc(OCC[N+](C)(C)C)cc1)c1ccccc1.[I-] [TAMOXIFEN METHYL IODIDE] | 46.3 |  |  | 5 | inactive | Active |  |
| CCC[N+](C)(C)CCOc1ccc(/C(=C(/CC)c2ccccc2)c2ccccc2)cc1.[Br-] [TAMOXIFEN PROPYL BROMIDE] |  |  |  | 9 | inactive | Active |  |
| CC/C(=C(\c1ccccc1)c1ccc(OCCN(C)C)cc1)c1ccccc1 [TAMOXIFEN] |  |  |  | 9 | inactive | Active |  |

From ChEMBL document CHEMBL1212848 (Bioorg Med Chem, 2010)
